Source: PubChem BioAssay AID256 (DTP/NCI, 2004)
Inconclusive results and toxic doses are left out.

Tested on: CD2F1 mice, L1210 leukemia ip, survival T/C
Test: NCI In Vivo Anticancer Drug Screen. Data for tumor model L1210 Leukemia (intraperitoneal) in CD2F1 (CDF1) mice
Conditions: higher = longer survival
Outline: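 Mice carrying a transplanted tumor received test compound or vehicle alone. The value is the measurement in the treated group divided by that in the vehicle-treated control group.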

[1] = endpoint: mean survival time, dose: 75.0 mg/kg/injection, schedule: Q01DX001 (ip), vehicle: saline
[2] = endpoint: mean survival time, dose: 150.0 mg/kg/injection, schedule: Q01DX001 (ip), vehicle: saline
[3] = endpoint: mean survival time, dose: 100.0 mg/kg/injection, schedule: Q01DX009 (ip), vehicle: saline with Tween-80
[4] = endpoint: mean survival time, dose: 200.0 mg/kg/injection, schedule: Q01DX009 (ip), vehicle: saline with Tween-80
[5] = endpoint: mean survival time, dose: 400.0 mg/kg/injection, schedule: Q01DX009 (ip), vehicle: saline with Tween-80
[6] = endpoint: mean survival time, dose: 50.0 mg/kg/injection, schedule: Q01DX009 (ip), vehicle: saline with Tween-80
[7] = endpoint: mean survival time, dose: 100.0 mg/kg/injection, schedule: Q04DX003 (ip), vehicle: saline with Tween-80
[8] = endpoint: mean survival time, dose: 200.0 mg/kg/injection, schedule: Q04DX003 (ip), vehicle: saline with Tween-80
[9] = endpoint: mean survival time, dose: 400.0 mg/kg/injection, schedule: Q04DX003 (ip), vehicle: saline with Tween-80

In the case of `CC(C)(CNC1CCCCC1)OC(=O)c1ccc([N+](=O)[O-])cc1`, the T/C [1] is reported as 94 % of control, the T/C [2] is reported as 99 % of control and the T/C (endpoint: mean survival time, dose: 300.0 mg/kg/injection, schedule: Q01DX001 (ip), vehicle: saline) is reported as 94 % of control.
With `O=C(O)CC1CCC(CC(=O)O)CC1` (stereo unspecified) the T/C [3] was 101 % of control, the T/C [4] was 104 % of control and the T/C [5] was 101 % of control.
`O=CCC1CCCCC1` was tested, and the T/C [6] was 105 % of control, the T/C [3] was 94 % of control and the T/C [4] was 102 % of control.
For `CCCCC(NC(=O)CN)C(=O)O` (stereo unspecified), the T/C (endpoint: mean survival time, dose: 75.0 mg/kg/injection, schedule: Q04DX002 (ip), vehicle: saline with Tween-80) was 111 % of control, the T/C (endpoint: mean survival time, dose: 150.0 mg/kg/injection, schedule: Q04DX002 (ip), vehicle: saline with Tween-80) was 91 % of control and the T/C (endpoint: mean survival time, dose: 300.0 mg/kg/injection, schedule: Q04DX002 (ip), vehicle: saline with Tween-80) was 106 % of control.
`C(=NCCN=Cc1ccccc1)c1ccccc1` was tested, and the T/C [3] was 97 % of control, the T/C [4] was 97 % of control and the T/C [5] was 96 % of control.
With `CCCCCCCC(=O)Nc1ccc(CC)cc1` the T/C [3] was 107 % of control, the T/C [7] was 95 % of control and the T/C [4] was 105 % of control. For the same compound, the T/C [8] was 103 % of control, the T/C [5] was 107 % of control and the T/C [9] was 93 % of control.
In the case of `COC1CCC2CCN(C)C(Cc3ccc(Oc4ccc(CC5C6CC(OC)CCC6CCN5C)cc4)cc3)C2C1` (stereo unspecified), the T/C (endpoint: mean survival time, dose: 1.56 mg/kg/injection, schedule: Q04DX002 (ip), vehicle: saline with Tween-80) is reported as 90 % of control and the T/C (endpoint: mean survival time, dose: 3.13 mg/kg/injection, schedule: Q04DX002 (ip), vehicle: saline with Tween-80) is reported as 94 % of control.
`NN(C(=O)c1ccc(Cl)cc1)c1ccccc1` was tested, and the T/C [7] was 95 % of control, the T/C [8] was 92 % of control and the T/C [9] was 97 % of control.
For `CC(C)(C)OC(=O)NC(CCCCNC(=O)OCc1ccccc1)C(=O)Oc1ccc([N+](=O)[O-])cc1` (stereo unspecified), the T/C [7] was 91 % of control, the T/C [8] was 86 % of control and the T/C [9] was 86 % of control.
In the case of `CN1CC(=O)N=C1N.CN1CC(=O)N=C1N.[Cl][Pt][Cl]`, the T/C (endpoint: mean survival time, dose: 3.13 mg/kg/injection, schedule: Q04DX003 (ip), vehicle: water) is reported as 102 % of control, the T/C (endpoint: mean survival time, dose: 6.25 mg/kg/injection, schedule: Q04DX003 (ip), vehicle: water) is reported as 96 % of control and the T/C (endpoint: mean survival time, dose: 12.5 mg/kg/injection, schedule: Q04DX003 (ip), vehicle: water) is reported as 96 % of control. The T/C (endpoint: mean survival time, dose: 25.0 mg/kg/injection, schedule: Q04DX003 (ip), vehicle: water) was 100 % of control, the T/C (endpoint: mean survival time, dose: 50.0 mg/kg/injection, schedule: Q04DX003 (ip), vehicle: water) was 102 % of control and the T/C (endpoint: mean survival time, dose: 100.0 mg/kg/injection, schedule: Q04DX003 (ip), vehicle: water) was 92 % of control.
In the case of `CN(N)C=O`, the T/C (endpoint: mean survival time, dose: 25.0 mg/kg/injection, schedule: Q04DX003 (ip), vehicle: saline) is reported as 98 % of control, the T/C (endpoint: mean survival time, dose: 50.0 mg/kg/injection, schedule: Q04DX003 (ip), vehicle: saline) is reported as 94 % of control and the T/C (endpoint: mean survival time, dose: 100.0 mg/kg/injection, schedule: Q04DX003 (ip), vehicle: saline) is reported as 102 % of control.
With `CC(=O)N(Cc1ccccn1)N=O` the T/C (endpoint: mean survival time, dose: 75.0 mg/kg/injection, schedule: Q01DX001 (ip), vehicle: water) was 112 % of control and the T/C (endpoint: mean survival time, dose: 150.0 mg/kg/injection, schedule: Q01DX001 (ip), vehicle: water) was 122 % of control.
In the case of `COCC(O)Cn1ccnc1[N+](=O)[O-]` (stereo unspecified), the T/C (endpoint: mean survival time, dose: 12.5 mg/kg/injection, schedule: Q01DX009 (ip), vehicle: suspension in saline) is reported as 102 % of control, the T/C (endpoint: mean survival time, dose: 12.5 mg/kg/injection, schedule: Q01DX009 (ip), vehicle: water) is reported as 100 % of control and the T/C (endpoint: mean survival time, dose: 25.0 mg/kg/injection, schedule: Q01DX009 (ip), vehicle: suspension in saline) is reported as 104 % of control. For the same compound, the T/C (endpoint: mean survival time, dose: 25.0 mg/kg/injection, schedule: Q01DX009 (ip), vehicle: water) was 101 % of control, the T/C (endpoint: mean survival time, dose: 50.0 mg/kg/injection, schedule: Q01DX009 (ip), vehicle: suspension in saline) was 104 % of control and the T/C (endpoint: mean survival time, dose: 50.0 mg/kg/injection, schedule: Q01DX009 (ip), vehicle: water) was 103 % of control. The T/C (endpoint: mean survival time, dose: 100.0 mg/kg/injection, schedule: Q01DX009 (ip), vehicle: suspension in saline) was 107 % of control, the T/C (endpoint: mean survival time, dose: 100.0 mg/kg/injection, schedule: Q01DX009 (ip), vehicle: water) was 97 % of control and the T/C (endpoint: mean survival time, dose: 200.0 mg/kg/injection, schedule: Q01DX009 (ip), vehicle: suspension in saline) was 104 % of control. For the same compound, the T/C (endpoint: mean survival time, dose: 200.0 mg/kg/injection, schedule: Q01DX009 (ip), vehicle: water) was 103 % of control, the T/C (endpoint: mean survival time, dose: 400.0 mg/kg/injection, schedule: Q01DX009 (ip), vehicle: suspension in saline) was 96 % of control and the T/C (endpoint: mean survival time, dose: 400.0 mg/kg/injection, schedule: Q01DX009 (ip), vehicle: water) was 101 % of control.
`O/N=C1/CCCC/C1=C/c1ccc(Cl)cc1` was tested, and the T/C (endpoint: mean survival time, dose: 100.0 mg/kg/injection, schedule: Q04DX003 (ip), vehicle: Klucel (hydroxypropylcellulose) (HPC)) was 98 % of control, the T/C (endpoint: mean survival time, dose: 200.0 mg/kg/injection, schedule: Q04DX003 (ip), vehicle: Klucel (hydroxypropylcellulose) (HPC)) was 100 % of control and the T/C (endpoint: mean survival time, dose: 400.0 mg/kg/injection, schedule: Q04DX003 (ip), vehicle: Klucel (hydroxypropylcellulose) (HPC)) was 100 % of control.
`C#CCOCC1CO1` (stereo unspecified) was tested, and the T/C [1] was 95 % of control and the T/C [2] was 87 % of control.
`CC(C)(C)OC(=O)NNC(c1ccccc1)c1ccccc1` was tested, and the T/C [3] was 101 % of control, the T/C [7] was 98 % of control and the T/C [4] was 95 % of control. For the same compound, the T/C [8] was 95 % of control and the T/C [9] was 97 % of control.
`BrC1=C(Br)C(Br)(Br)C(Br)=C1Br` was tested, and the T/C (endpoint: mean survival time, dose: 1.25 mg/kg/injection, schedule: Q01DX009 (ip), vehicle: saline with Tween-80) was 106 % of control, the T/C (endpoint: mean survival time, dose: 2.5 mg/kg/injection, schedule: Q01DX009 (ip), vehicle: saline with Tween-80) was 101 % of control and the T/C (endpoint: mean survival time, dose: 5.0 mg/kg/injection, schedule: Q01DX009 (ip), vehicle: saline with Tween-80) was 101 % of control.
With `C[C@]12C[C@H](O)[C@H]3[C@@H](CCC4=CC(=O)CC[C@@]43C)[C@@H]1CC[C@@H]2C(=O)CO` the T/C (endpoint: median survival time, dose: 25.0 mg/kg/injection, schedule: Q01DX009 (sc), vehicle: steriod suspending solution) was 100 % of control, the T/C (endpoint: median survival time, dose: 50.0 mg/kg/injection, schedule: Q01DX009 (sc), vehicle: steriod suspending solution) was 100 % of control and the T/C (endpoint: median survival time, dose: 100.0 mg/kg/injection, schedule: Q01DX009 (sc), vehicle: steriod suspending solution) was 100 % of control. The T/C (endpoint: median survival time, dose: 200.0 mg/kg/injection, schedule: Q01DX009 (sc), vehicle: steriod suspending solution) was 100 % of control.
In the case of `Cc1ccc(S(=O)(=O)OCC2OCOC(COS(=O)(=O)c3ccc(C)cc3)C(O)C2O)cc1` (stereo unspecified), the T/C [3] is reported as 101 % of control, the T/C [4] is reported as 98 % of control and the T/C [5] is reported as 96 % of control.
With `COC1CC(C)C(OC)c2cc(O)cc(c2O)NC(=O)/C(C)=C/C=C\C(C)C(OC(N)=O)/C(C)=C\C(C)C1OC` (stereo unspecified) the T/C (endpoint: median survival time, dose: 1.25 mg/kg/injection, schedule: Q01DX009 (ip), vehicle: saline + alcohol) was 105 % of control, the T/C (endpoint: median survival time, dose: 2.5 mg/kg/injection, schedule: Q01DX009 (ip), vehicle: saline + alcohol) was 105 % of control and the T/C (endpoint: median survival time, dose: 5.0 mg/kg/injection, schedule: Q01DX009 (ip), vehicle: saline + alcohol) was 105 % of control. The T/C (endpoint: median survival time, dose: 10.0 mg/kg/injection, schedule: Q01DX009 (ip), vehicle: saline + alcohol) was 110 % of control and the T/C (endpoint: median survival time, dose: 20.0 mg/kg/injection, schedule: Q01DX009 (ip), vehicle: saline + alcohol) was 107 % of control.
In the case of `CCC12NC(=O)NC1(C)NC(=O)N2` (stereo unspecified), the T/C (endpoint: mean survival time, dose: 6.25 mg/kg/injection, schedule: Q01DX009 (ip), vehicle: saline with Tween-80) is reported as 95 % of control, the T/C (endpoint: mean survival time, dose: 6.25 mg/kg/injection, schedule: Q04DX003 (ip), vehicle: saline with Tween-80) is reported as 102 % of control and the T/C (endpoint: mean survival time, dose: 12.5 mg/kg/injection, schedule: Q01DX009 (ip), vehicle: saline with Tween-80) is reported as 95 % of control. For the same compound, the T/C (endpoint: mean survival time, dose: 12.5 mg/kg/injection, schedule: Q04DX003 (ip), vehicle: saline with Tween-80) was 106 % of control, the T/C (endpoint: mean survival time, dose: 25.0 mg/kg/injection, schedule: Q01DX009 (ip), vehicle: saline with Tween-80) was 93 % of control and the T/C (endpoint: mean survival time, dose: 25.0 mg/kg/injection, schedule: Q04DX003 (ip), vehicle: saline with Tween-80) was 110 % of control.
For `COc1cc(C=Nc2ccc(-c3nc(C)sc3C)cc2)ccc1N(CCCl)CCCl`, the T/C (endpoint: mean survival time, dose: 25.0 mg/kg/injection, schedule: Q01DX001 (ip), vehicle: carboxymethylcellulose (CMC)) was 155 % of control and the T/C (endpoint: mean survival time, dose: 50.0 mg/kg/injection, schedule: Q01DX001 (ip), vehicle: carboxymethylcellulose (CMC)) was 97 % of control.
`CCCCCCCCCc1nc(N)nc(N)n1` was tested, and the T/C [6] was 104 % of control, the T/C [3] was 104 % of control and the T/C [4] was 104 % of control.
`O=c1cnn(C2OC(CO)C(O)C2O)c(=S)[nH]1` (stereo unspecified) was tested, and the T/C [3] was 123 % of control, the T/C (endpoint: mean survival time, dose: 100.0 mg/kg/injection, schedule: Q04DX003 (ip), vehicle: saline sonified) was 102 % of control and the T/C [4] was 107 % of control. For the same compound, the T/C (endpoint: mean survival time, dose: 200.0 mg/kg/injection, schedule: Q04DX003 (ip), vehicle: saline sonified) was 104 % of control, the T/C [5] was 112 % of control and the T/C (endpoint: mean survival time, dose: 400.0 mg/kg/injection, schedule: Q04DX003 (ip), vehicle: saline sonified) was 96 % of control.
For `CC(=O)Oc1ccc(OC(C)=O)c2c1C(=O)C=CC2=O`, the T/C (endpoint: mean survival time, dose: 0.78 mg/kg/injection, schedule: Q04DX002 (ip), vehicle: alcohol) was 92 % of control and the T/C (endpoint: mean survival time, dose: 3.12 mg/kg/injection, schedule: Q04DX002 (ip), vehicle: alcohol) was 86 % of control.
